# Experimental data: patent US7312330B2, “Bicycloheteroarylamine compounds as ion channel ligands and uses thereof” (Renovis, Inc., priority 2003, dated 2007)
# Molecular target: hVR1 (Homo sapiens, UniProt Q8NER1)
# Assay: Calcium imaging assay (Fura2) of VR1 antagonists, proton stimulation
# Type: cell-based
# Conditions: HEK 293 cells expressing hVR1; for % Inhibition @ 1 μM: calcium ion influx induced by proton stimulation (pH 5.7); for IC50: calcium ion influx induced by proton stimulation
# From the text: VR1 protein is a heat-gated cation channel that exchanges about 10 calcium ions for every sodium ion resulting in neuronal membrane depolarization and elevated intracellular calcium ion levels. Therefore the functional activity of compounds at the VR1 receptor may be determined by measuring changes in intracellular calcium levels in 293 cells expressing capsaicin-insensitive VR1 receptor variants. A dual wavelength ratiometric dye, Fura2, was used as an indicator of relative levels of calcium ions in a 96 well format using a bench top scanning fluorometer with integrated fluidics and temperature control (Flex Station, Molecular Devices).
# A dual wavelength ratiometric dye, Fura2, was used as an indicator of relative levels of [Ca2+] in a 96 well format using a bench top scanning fluorometer with integrated fluidics and temperature control (Flex Station, Molecular Devices).
# HEK 293 cells expressing hVR1 were grown on PDL coated 96-well black-walled plates, in the presence of a DMEM medium containing 5% Penstrep, 5% Glutamax, 200 ug/mL Hygromycin, 5 μg/mL Blasticide and 10% heat inactivated FBS. Prior to assay, the cells were loaded with 5 μg/mL Fura2 in normal saline solution at 37° C. for 40 minutes. Cells were then washed with normal saline to remove the dye.
# The assay consists of two stages; a pre-treatment phase followed by a treatment phase. In the pretreatment phase, 50 μl of a compound solution was added to the cells. Immediately following, 50 μl of the test compound in the presence of agonist (a saline solution plus 10 mM citric acid bufferd to pH 5.7 with HCl) was added. Fura2 was excited at […] to indicate relative calcium concentration. Changes in wavelength measurements were made throughout the course of the experiment in 4 second intervals over a period of 3 minutes. The fluorescence ratio from the excitations at […] was recorded for analysis. Responses were measured as peak fluorescence ratio after compound-agonist addition minus baseline fluorescence ratio prior to treatment and were calculated for each concentration tested using the SoftMaxPro software. Data was expressed as percentage inhibition calculated as follows: […]
# A dose response curve was then determined, from which the ID50 of each compound was calculated.
# Chain of hVR1 (Q8NER1 whole entry): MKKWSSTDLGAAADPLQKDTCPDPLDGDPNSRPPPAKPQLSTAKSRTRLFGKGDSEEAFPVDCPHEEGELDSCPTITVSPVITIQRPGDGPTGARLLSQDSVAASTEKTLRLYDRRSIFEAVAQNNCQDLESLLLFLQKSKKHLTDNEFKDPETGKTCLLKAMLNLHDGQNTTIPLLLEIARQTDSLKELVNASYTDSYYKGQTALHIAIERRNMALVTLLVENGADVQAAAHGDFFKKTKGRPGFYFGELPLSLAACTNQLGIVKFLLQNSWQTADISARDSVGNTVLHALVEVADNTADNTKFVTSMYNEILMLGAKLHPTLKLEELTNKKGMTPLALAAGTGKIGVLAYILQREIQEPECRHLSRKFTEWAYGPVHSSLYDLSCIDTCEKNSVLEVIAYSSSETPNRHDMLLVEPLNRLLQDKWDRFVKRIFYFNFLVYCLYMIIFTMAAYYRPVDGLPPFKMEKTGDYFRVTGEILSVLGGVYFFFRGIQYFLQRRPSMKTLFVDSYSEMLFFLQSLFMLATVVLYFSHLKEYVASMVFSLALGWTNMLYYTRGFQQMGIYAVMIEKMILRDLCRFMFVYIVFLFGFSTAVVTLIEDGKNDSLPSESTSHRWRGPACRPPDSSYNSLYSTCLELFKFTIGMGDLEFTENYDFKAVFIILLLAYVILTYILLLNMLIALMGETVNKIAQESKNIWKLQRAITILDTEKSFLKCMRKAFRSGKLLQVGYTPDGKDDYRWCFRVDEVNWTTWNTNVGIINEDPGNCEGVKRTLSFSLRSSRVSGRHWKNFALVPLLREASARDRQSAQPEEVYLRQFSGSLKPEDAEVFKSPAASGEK
IC50,Compound,% Inhibition @ 1 μM
< 100 nM,"FC(F)(F)Oc1ccc(Nc2ncnc3c2CCN(c2ncccc2C(F)(F)F)C3)cc1 [Example 79, 7-(3-(trifluoromethyl)pyridin-2-yl)-5,6,7,8-tetrahydro-N-(4-(trifluoromethoxy)-phenyl)pyrido[3,4-d]pyrimidin-4-amine]",++++ (compound exhibited 76% or greater inhibition of calcium ion influx induced by proton stimulation)
–,"CS(=O)(=O)c1cccnc1N1CCc2c(ncnc2Nc2ccc(OC(F)F)cc2)C1 [Example 14, N-(4-(Difluoromethoxy)phenyl)-5,6,7,8-tetrahydro-7-(3-(methylsulfonyl)pyridin-2-yl)pyrido[3,4-d]pyrimidin-4-amine]",+ (compound exhibited 0-25% inhibition of calcium ion influx induced by proton stimulation)
101 to 500 nM,CS(=O)(=O)c1cccnc1N1CCc2c(ncnc2Nc2ccc(C(F)(F)F)nc2)C1 [Example 21],+++ (compound exhibited 51-75% inhibition of calcium ion influx induced by proton stimulation)
> 1000 nM,"COc1cccc(Nc2ncnc3c2CCN(c2cc(C(F)(F)F)ccn2)C3)c1 [Example 72, 7-(4-(Trifluoromethyl)pyridin-2-yl)-5,6,7,8-tetrahydro-N-(3-methoxyphenyl)pyrido[3,4-d]pyrimidin-4-amine]",+ (compound exhibited 0-25% inhibition of calcium ion influx induced by proton stimulation)
> 1000 nM,"Oc1nc2c(c(Nc3ccc(C(F)(F)F)cc3)n1)CCN(c1ncccc1Cl)C2 [Example 57, 4-(4-(Trifluoromethyl)phenylamino)-7-(3-chloropyridin-2-yl)-5,6,7,8-tetrahydropyrido[3,4-d]pyrimidin-2-ol]",+ (compound exhibited 0-25% inhibition of calcium ion influx induced by proton stimulation)
> 1000 nM,"FC(F)(F)c1ccc(Nc2ncnc3c2CCN(c2ccccc2)C3)cc1 [Example 44, 7-(Phenyl)-N-(4-(trifluoromethyl)phenyl)-5,6,7,8-tetrahydropyrido[3,4-d]pyrimidin-4-amine]",+ (compound exhibited 0-25% inhibition of calcium ion influx induced by proton stimulation)
–,"Clc1cccnc1N1CCc2c(ncnc2NCCCc2ccccc2)C1 [Example 51, 7-(3-Chloropyridin-2-yl)-5,6,7,8-tetrahydro-N-(3-phenylpropyl)pyrido[3,4-d]pyrimidin-4-amine]",+ (compound exhibited 0-25% inhibition of calcium ion influx induced by proton stimulation)
< 100 nM,"CN1CCC(C)(C)c2ccc(Nc3ncnc4c3CCN(c3ncccc3Cl)C4)cc21 [Example 60, 7-(3-Chloropyridin-2-yl)-5,6,7,8-tetrahydro-N-(1,2,3,4-tetrahydro-1,4,4-trimethylquinolin-7-yl)pyrido[3,4-d]pyrimidin-4-amine]",–
< 100 nM,"FC(F)(F)Oc1ccc(Nc2ncnc3c2CCN(c2ncccc2Cl)C3)cc1 [Example 78, 7-(3-Chloropyridin-2-yl)-5,6,7,8-tetrahydro-N-(4-(trifluoromethoxy)-phenyl)pyrido[3,4-d]pyrimidin-4-amine]",++++ (compound exhibited 76% or greater inhibition of calcium ion influx induced by proton stimulation)
–,"FC(F)(F)c1cccc(CCNc2ncnc3c2CCN(c2ncccc2Cl)C3)c1 [Example 50, N-(3-(Trifluoromethyl)phenethyl)-7-(3-chloropyridin-2-yl)-5,6,7,8-tetrahydropyrido[3,4-d]pyrimidin-4-amine]",+ (compound exhibited 0-25% inhibition of calcium ion influx induced by proton stimulation)
501 to 1000 nM,"CC(=O)N1CC(C)(C)c2ccc(Nc3ncnc4c3CCN(c3ncccc3Cl)C4)cc21 [Example 68, 1-(6-(7-(3-Chloropyridin-2-yl)-5,6,7,8-tetrahydropyrido[3,4-d]pyrimidin-4-ylamino)-3,3-dimethylindolin-1-yl)ethanone]",+++ (compound exhibited 51-75% inhibition of calcium ion influx induced by proton stimulation)
> 1000 nM,"Clc1cccnc1N1CCc2c(ncnc2Nc2ccc3c(c2)OCCO3)C1 [Example 74, 7-(3-Chloropyridin-2-yl)-5,6,7,8-tetrahydro-N-(2,3-dihydrobenzo[b][1,4]dioxin-6-yl)pyrido[3,4-d]pyrimidin-4-amine]",++ (compound exhibited 26-50% inhibition of calcium ion influx induced by proton stimulation)
–,"CC(C)(C)c1ccc(Nc2nc(CN3CCOCC3)nc3c2CCN(c2ncccc2Cl)C3)cc1 [Example 13, (4-tert-Butyl-phenyl)-[7-(3-chloro-pyridin-2-yl)-2-morpholin-4-ylmethyl-5,6,7,8-tetrahydro-pyrido[3,4-d]pyrimidin-4-yl]-amine]",++ (compound exhibited 26-50% inhibition of calcium ion influx induced by proton stimulation)
> 1000 nM,"Clc1cccnc1N1CCc2c(ncnc2Nc2ccccc2)C1 [Example 18, 7-(3-Chloropyridin-2-yl)-N-(phenyl)-5,6,7,8-tetrahydropyrido[3,4-d]pyrimidin-4-amine]",+ (compound exhibited 0-25% inhibition of calcium ion influx induced by proton stimulation)
–,"Nc1nc2c(c(Nc3ccc(C(F)(F)F)cc3)n1)CCN(c1ncccc1Cl)C2 [Example 17, 7-(3-Chloro-pyridin-2-yl)-N^4-(4-trifluoromethyl-phenyl)-5,6,7,8-tetrahydro-pyrido[3,4-d]pyrimidine-2,4-diamine]",++++ (compound exhibited 76% or greater inhibition of calcium ion influx induced by proton stimulation)
101 to 500 nM,"FC(F)Oc1ccc(Nc2ncnc3c2CCN(c2ncccc2C(F)(F)F)C3)cc1 [Example 77, N-(4-(difluoromethoxy)phenyl)-7-(3-(trifluoromethyl)pyridin-2-yl)-5,6,7,8-tetrahydropyrido[3,4-d]pyrimidin-4-amine]",++++ (compound exhibited 76% or greater inhibition of calcium ion influx induced by proton stimulation)
101 to 500 nM,"CSc1nc2c(c(Nc3ccc(C(F)(F)F)cc3)n1)CCN(c1ncccc1S(C)(=O)=O)C2 [Example 63, N-(4-(Trifluoromethyl)phenyl)-5,6,7,8-tetrahydro-7-(3-(methylsulfonyl)pyridin-2-yl)-2-(methylthio)pyrido[3,4-d]pyrimidin-4-amine]",+++ (compound exhibited 51-75% inhibition of calcium ion influx induced by proton stimulation)
< 100 nM,"CC(C)(C#N)c1ccc(Nc2ncnc3c2CCN(c2ncccc2Cl)C3)cc1 [Example 56, 2-(4-(7-(3-Chloropyridin-2-yl)-5,6,7,8-tetrahydropyrido[3,4-d]pyrimidin-4-ylamino)phenyl)-2-methylpropanenitrile]",++++ (compound exhibited 76% or greater inhibition of calcium ion influx induced by proton stimulation)
101 to 500 nM,"COc1nc2c(c(Nc3ccc(C(F)(F)F)cc3)n1)CCN(c1ncccc1Cl)C2 [Example 27, 7-(3-Chloropyridin-2-yl)-N-(4-(trifluoromethyl)phenyl)-5,6,7,8-tetrahydro-2-methoxypyrido[3,4-d]pyrimidin-4-amine]",–
101 to 500 nM,"CSc1nc2c(c(Nc3ccc(C(F)(F)F)cc3)n1)CCN(c1ncccc1Cl)C2 [Example 24, [7-(3-Chloro-pyridin-2-yl)-2-methylsulfanyl-5,6,7,8-tetrahydro-pyrido[3,4-d]pyrimidin-4-yl]-(4-trifluoromethyl-phenyl)-amine]",–
101 to 500 nM,"FC(F)Oc1ccc(Nc2ncnc3c2CCN(c2ncccc2Cl)C3)cc1 [Example 15, 7-(3-Chloropyridin-2-yl)-N-(4-(difluoromethoxy)phenyl)-5,6,7,8-tetrahydropyrido[3,4-d]pyrimidin-4-amine]",+++ (compound exhibited 51-75% inhibition of calcium ion influx induced by proton stimulation)

Compound,IC50,% Inhibition @ 1 μM
"CC(C)(C)c1ccc(Nc2ncnc3c2CCN(c2ncccc2C(F)(F)F)C3)cc1.Cl [Example 4, N-(4-tert-Butylphenyl)-7-(3-(trifluoromethyl)pyridin-2-yl)-5,6,7,8-tetrahydropyrido[3,4-d]pyrimidin-4-amine hydrochloride]",< 100 nM,++++ (compound exhibited 76% or greater inhibition of calcium ion influx induced by proton stimulation)
"COCc1nc2c(c(Nc3ccc(C(C)(C)C)cc3)n1)CCN(c1ncccc1C(F)(F)F)C2.Cl [Example 6, (4-tert-Butyl-phenyl)-[2-methoxymethyl-7-(3-trifluoromethyl-pyridin-2-yl)-5,6,7,8-tetrahydro-pyrido[3,4-d]pyrimidin-4-yl]-amine hydrochloride]",< 100 nM,++++ (compound exhibited 76% or greater inhibition of calcium ion influx induced by proton stimulation)
"CC1(C)CCNc2cc(Nc3ncnc4c3CCN(c3ncccc3Cl)C4)ccc21 [Example 59, 7-(3-chloropyridin-2-yl)-5,6,7,8-tetrahydro-N-(1,2,3,4-tetrahydro-4,4-dimethylquinolin-7-yl)pyrido[3,4-d]pyrimidin-4-amine]",101 to 500 nM,–
